From patent US10681909B2, “Herbicidal triazoles” (FMC Corporation, priority 2014, dated 2020)

Key:
ragweed = experiment: Test A postemergence; assay type: in vivo, Ambrosia elatior; conditions: 0 to 100 scale (0 no effect, 100 complete control), approx. 10 d
Method in brief: (§1)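 Ratings reflect visual injury after ~10 d in greenhouse, 0 = no effect, 100 = complete control. Postemergence treatment was applied to one- to two-leaf seedlings; preemergence treatment was a directed soil spray at planting.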

oilseed rape = experiment: Test C preemergence; assay type: in vivo, Brassica napus; conditions: for Plant response rating (scale of 0 to 100 where 0 is no effect and 100 is complete control): Oilseed Rape, preemergence; for Oilseed Rape plant response rating (0 to 100): Preemergence, visual rating after 13 to 15 d
Source text: (§2) Seeds of plant species selected from blackgrass (Alopecurus myosuroides), ryegrass, Italian (Italian ryegrass, Lolium multiflorum), wheat (winter wheat, Triticum aestivum), galium (catchweed bedstraw, Galium aparine), corn (Zea mays), crabgrass, large (large crabgrass, Digitaria sanguinalis), foxtail, giant, (giant foxtail, Setaria faberii), johnsongrass (Sorghum halepense), lambsquarters (Chenopodium album), morningglory (Ipomoea coccinea), nutsedge, yellow (yellow nutsedge, Cyperus esculentus), pigweed (Amaranthus retroflexus), ragweed (common ragweed, Ambrosia elatior), soybean (Glycine max), barnyardgrass (Echinochloa crus-galli), oilseed rape (Brassica napus), waterhemp (common waterhemp, Amaranthus rudis), and velvetleaf (Abutilon theophrasti) were planted into a blend of loam soil and sand and treated preemergence with test chemicals formulated in a non-phytotoxic solvent mixture which included a surfactant. At the same time, plants selected from these crop and weed species and also chickweed (common chickweed, Stellaria media), oat, wild (wild oat, Avena fatua), and kochia (Kochia scoparia), were planted in pots containing Sunshine Redi-Earth® planting medium comprising spaghnum peat moss, vermiculite, starter nutrients and dolomitic limestone and treated with postemergence applications of test chemicals formulated in the same manner. Plants ranged in height from 2 to 18 cm (1- to 4-leaf stage) for postemergence treatments. […] A dash (-) response means no test result.

kochia [1] = experiment: Test A preemergence; assay type: in vivo, Kochia scoparia; conditions: 0 to 100 scale (0 no effect, 100 complete control)
Method in brief: as §1

deadnettle = experiment: Test D postemergence; assay type: in vivo, Lamium amplexicaule; conditions: scale 0 to 100
Source text: (§3) Seeds of plant species selected from bluegrass (annual bluegrass, Poa annua), blackgrass (Alopecurus myosuroides), canarygrass (Phalaris minor), chickweed (common chickweed, Stellaria media), galium (catchweed bedstraw, Galium aparine), bromegrass, down (downy bromegrass, Bromus tectorum), Russian thistle (Salsola kali), field poppy (Papaver rhoeas), field violet (Viola arvensis), foxtail, green (green foxtail, Setaria viridis), deadnettle (henbit deadnettle, Lamium amplexicaule), ryegrass, Ital. (Italian ryegrass, Lolium multiflorum), kochia (Kochia scoparia), lambsquarters (Chenopodium album), oilseed rape (Brassica napus), pigweed (Amaranthus retroflexus), chamomile (scentless chamomile, Matricaria inodora), speedwell (bird's-eye speedwell, Veronica persica), barley, spring (spring barley, Hordeum vulgare), wheat, spring (spring wheat, Triticum aestivum), buckwheat, wild (wild buckwheat, Polygonum convolvulus), wild mustard (Sinapis arvensis), oat, wild (wild oat, Avena fatua), radish, wild (wild radish, Raphanus raphanistrum), […]), barley, winter (winter barley, Hordeum vulgare), and wheat, winter (winter wheat, Triticum aestivum) were planted into a silt loam soil and treated preemergence with test chemicals formulated in a non-phytotoxic solvent mixture which included a surfactant. At the same time, these species were planted in pots containing Sunshine Redi-Earth® planting medium comprising spaghnum peat moss, vermiculite, starter nutrients and dolomitic limestone and treated with postemergence applications of the test chemicals formulated in the same manner. Plants ranged in height from 2 to 18 cm (1- to 4-leaf stage). Treated plants and controls were maintained in a controlled growth environment for 14 to 21 d after which time all species were compared to controls and visually evaluated. […] A dash (-) response means no test result.

kochia [2] = experiment: Test D postemergence; assay type: in vivo, Kochia scoparia; conditions: scale 0 to 100
Source text: as §3

ryegrass, Ital. = experiment: Test D postemergence; assay type: in vivo, Lolium multiflorum; conditions: scale 0 to 100
Source text: as §3

johnsongrass = experiment: Test C preemergence; assay type: in vivo, Sorghum halepense; conditions: for Plant response rating (scale of 0 to 100 where 0 is no effect and 100 is complete control): Johnsongrass, preemergence; for Johnsongrass plant response rating (0 to 100): Preemergence, visual rating after 13 to 15 d
Source text: as §2

barnyardgrass = experiment: Test C preemergence; assay type: in vivo, Echinochloa crus-galli; conditions: for Plant response rating (scale of 0 to 100 where 0 is no effect and 100 is complete control): Barnyardgrass, preemergence; for Barnyardgrass plant response rating (0 to 100): Preemergence, visual rating after 13 to 15 d
Source text: as §2

buckwheat, wild = experiment: Test D preemergence; assay type: in vivo, Polygonum convolvulus; conditions: for Plant response rating (0 to 100), Buckwheat, Wild: 16 g ai/ha, 0 is no effect, 100 is complete control; for Plant response rating: Buckwheat, Wild: scale 0 to 100
Source text: as §3

bluegrass = experiment: Test D preemergence; assay type: in vivo, Poa annua; conditions: for Plant response rating (0 to 100), Bluegrass: 16 g ai/ha, 0 is no effect, 100 is complete control; for Plant response rating: Bluegrass: scale 0 to 100
Source text: as §3

wheat, spring = experiment: Test D preemergence; assay type: in vivo, Triticum aestivum; conditions: for Plant response rating (0 to 100), Wheat, Spring: 16 g ai/ha, 0 is no effect, 100 is complete control; for Plant response rating: Wheat, Spring: scale 0 to 100
Source text: as §3

wheat, winter = experiment: Test D preemergence; assay type: in vivo, Triticum aestivum; conditions: for Plant response rating (0 to 100), Wheat, Winter: 16 g ai/ha, 0 is no effect, 100 is complete control; for Plant response rating: Wheat, Winter: scale 0 to 100
Source text: as §3

FC(F)(F)COc1nc(-c2ccccc2)nn1Cc1ccnc(C(F)(F)F)c1 [Compound 24]
Plant response rating, Ragweed (ragweed; 125 g ai/ha): 50
Plant response rating, Ragweed (ragweed; 500 g ai/ha): 70
Plant response rating (scale of 0 to 100 where 0 is no effect and 100 is complete control) (oilseed rape; 125 g ai/ha): 35
Plant response rating (scale of 0 to 100 where 0 is no effect and 100 is complete control) (oilseed rape; 250 g ai/ha): 98
Oilseed Rape plant response rating (0 to 100) (oilseed rape; 31 g ai/ha): 5
Oilseed Rape plant response rating (0 to 100) (oilseed rape; 62 g ai/ha): 30
Plant response rating, Kochia (kochia [1]; 125 g ai/ha): 80
Plant response rating, Kochia (kochia [1]; 500 g ai/ha, approx. 10 d): 90
Plant response rating: Deadnettle (deadnettle; 16 g ai/ha): 40
Plant response rating: Deadnettle (deadnettle; 31 g ai/ha): 60
Plant response rating: Deadnettle (deadnettle; 62 g ai/ha): 70
Plant response rating: Deadnettle (deadnettle; 125 g ai/ha): 85
Plant response rating: Kochia (kochia [2]; 16 g ai/ha): 85
Plant response rating: Kochia (kochia [2]; 31 g ai/ha): 90
Plant response rating: Kochia (kochia [2]; 62 g ai/ha): 90
Plant response rating: Kochia (kochia [2]; 125 g ai/ha): 90
Plant response rating: Ryegrass, Ital. (ryegrass, Ital.; 16 g ai/ha): 15
Plant response rating: Ryegrass, Ital. (ryegrass, Ital.; 31 g ai/ha): 25
Plant response rating: Ryegrass, Ital. (ryegrass, Ital.; 62 g ai/ha): 30
Plant response rating: Ryegrass, Ital. (ryegrass, Ital.; 125 g ai/ha): 40
Plant response rating (scale of 0 to 100 where 0 is no effect and 100 is complete control) (johnsongrass; 125 g ai/ha): 55
Plant response rating (scale of 0 to 100 where 0 is no effect and 100 is complete control) (johnsongrass; 250 g ai/ha): 85
Johnsongrass plant response rating (0 to 100) (johnsongrass; 31 g ai/ha): 10
Johnsongrass plant response rating (0 to 100) (johnsongrass; 62 g ai/ha): 40
Plant response rating (scale of 0 to 100 where 0 is no effect and 100 is complete control) (barnyardgrass; 125 g ai/ha): 80
Plant response rating (scale of 0 to 100 where 0 is no effect and 100 is complete control) (barnyardgrass; 250 g ai/ha): 85
Barnyardgrass plant response rating (0 to 100) (barnyardgrass; 31 g ai/ha): 10
Barnyardgrass plant response rating (0 to 100) (barnyardgrass; 62 g ai/ha): 45
Plant response rating (0 to 100), Buckwheat, Wild (buckwheat, wild): 50
Plant response rating: Buckwheat, Wild (buckwheat, wild; 31 g ai/ha): 55
Plant response rating: Buckwheat, Wild (buckwheat, wild; 62 g ai/ha): 60
Plant response rating: Buckwheat, Wild (buckwheat, wild; 125 g ai/ha): 70
Plant response rating (0 to 100), Bluegrass (bluegrass): 20
Plant response rating: Bluegrass (bluegrass; 31 g ai/ha): 75
Plant response rating: Bluegrass (bluegrass; 62 g ai/ha): 80
Plant response rating: Bluegrass (bluegrass; 125 g ai/ha): 98
Plant response rating (0 to 100), Wheat, Spring (wheat, spring): 15
Plant response rating: Wheat, Spring (wheat, spring; 62 g ai/ha): 25
Plant response rating: Wheat, Spring (wheat, spring; 125 g ai/ha): 15
Plant response rating (0 to 100), Wheat, Winter (wheat, winter): 15
Plant response rating: Wheat, Winter (wheat, winter; 62 g ai/ha): 20
Plant response rating: Wheat, Winter (wheat, winter; 125 g ai/ha): 20

FC(F)(F)COc1nc(-c2ccc(Cl)cc2)nn1Cc1ccnc(C(F)(F)F)c1 [Compound 31]
Plant response rating, Ragweed (ragweed; 125 g ai/ha): 70
Plant response rating, Ragweed (ragweed; 500 g ai/ha): 80
Plant response rating (scale of 0 to 100 where 0 is no effect and 100 is complete control) (oilseed rape; 125 g ai/ha): 45
Plant response rating (scale of 0 to 100 where 0 is no effect and 100 is complete control) (oilseed rape; 250 g ai/ha): 85
Oilseed Rape plant response rating (0 to 100) (oilseed rape; 31 g ai/ha): 10
Oilseed Rape plant response rating (0 to 100) (oilseed rape; 62 g ai/ha): 20
Plant response rating, Kochia (kochia [1]; 125 g ai/ha): 90
Plant response rating, Kochia (kochia [1]; 500 g ai/ha, approx. 10 d): 90
Plant response rating: Deadnettle (deadnettle; 16 g ai/ha): 75
Plant response rating: Deadnettle (deadnettle; 31 g ai/ha): 75
Plant response rating: Deadnettle (deadnettle; 62 g ai/ha): 80
Plant response rating: Deadnettle (deadnettle; 125 g ai/ha): 95
Plant response rating: Kochia (kochia [2]; 16 g ai/ha): 80
Plant response rating: Kochia (kochia [2]; 31 g ai/ha): 85
Plant response rating: Kochia (kochia [2]; 62 g ai/ha): 90
Plant response rating: Kochia (kochia [2]; 125 g ai/ha): 95
Plant response rating: Ryegrass, Ital. (ryegrass, Ital.; 16 g ai/ha): 25
Plant response rating: Ryegrass, Ital. (ryegrass, Ital.; 31 g ai/ha): 30
Plant response rating: Ryegrass, Ital. (ryegrass, Ital.; 62 g ai/ha): 55
Plant response rating: Ryegrass, Ital. (ryegrass, Ital.; 125 g ai/ha): 65
Plant response rating (scale of 0 to 100 where 0 is no effect and 100 is complete control) (johnsongrass; 125 g ai/ha): 85
Plant response rating (scale of 0 to 100 where 0 is no effect and 100 is complete control) (johnsongrass; 250 g ai/ha): 95
Johnsongrass plant response rating (0 to 100) (johnsongrass; 31 g ai/ha): 75
Johnsongrass plant response rating (0 to 100) (johnsongrass; 62 g ai/ha): 80
Plant response rating (scale of 0 to 100 where 0 is no effect and 100 is complete control) (barnyardgrass; 125 g ai/ha): 90
Plant response rating (scale of 0 to 100 where 0 is no effect and 100 is complete control) (barnyardgrass; 250 g ai/ha): 95
Barnyardgrass plant response rating (0 to 100) (barnyardgrass; 31 g ai/ha): 70
Barnyardgrass plant response rating (0 to 100) (barnyardgrass; 62 g ai/ha): 80
Plant response rating (0 to 100), Buckwheat, Wild (buckwheat, wild): 65
Plant response rating: Buckwheat, Wild (buckwheat, wild; 31 g ai/ha): 75
Plant response rating: Buckwheat, Wild (buckwheat, wild; 62 g ai/ha): 75
Plant response rating: Buckwheat, Wild (buckwheat, wild; 125 g ai/ha): 75
Plant response rating (0 to 100), Bluegrass (bluegrass): 55
Plant response rating: Bluegrass (bluegrass; 31 g ai/ha): 65
Plant response rating: Bluegrass (bluegrass; 62 g ai/ha): 95
Plant response rating: Bluegrass (bluegrass; 125 g ai/ha): 100
Plant response rating (0 to 100), Wheat, Spring (wheat, spring): 30
Plant response rating: Wheat, Spring (wheat, spring; 62 g ai/ha): 40
Plant response rating: Wheat, Spring (wheat, spring; 125 g ai/ha): 45
Plant response rating (0 to 100), Wheat, Winter (wheat, winter): 20
Plant response rating: Wheat, Winter (wheat, winter; 62 g ai/ha): 20
Plant response rating: Wheat, Winter (wheat, winter; 125 g ai/ha): 30
